Experiments:
Type in all cases: functional
Parameters in all cases: scale not given: the % may be the effect or the level left
[1] = Potential inhibitory activity of EAAT3 by the ability (500 uM) to attenuate the Na-dependent uptake of [3H]D-aspartate (25 uM) into C6 rat glioma cells
Rattus norvegicus [2] = organism: Rattus norvegicus; assay: Inhibitory activity (250 uM) against ATP dependent uptake of [3H]L-glutamate (250 uM) by isolated synaptic vesicles from rat forebrain to quantify activity at vesicular glutamate transporter
SNB-19 = assay: Inhibitory activity (500 uM) against Cl-dependent uptake of [3H]L-glutamate (100 uM) into SNB-19 human astrocytoma cells to determine activity at system Xc glutamate/cystine exchanger
Rattus norvegicus [3] = organism: Rattus norvegicus; assay: Potential inhibitory activity of EAAT2 by the ability (250 uM) to attenuate the Na-dependent uptake of [3H]D-aspartate (5 uM) into synaptosomes of rat forebrain; conditions: Brain

Row | SMILES | Activity [1] | Activity (Rattus norvegicus [2]) | Activity (SNB-19) | Activity (Rattus norvegicus [3])
1 | O=C(O)C1NC(=O)[C@@H]2CC=CC[C@@H]12 (stereo partly specified) | 93% | 103% | 89% | 53%
2 | CC1=C(C)C[C@@H](C(N)C(=O)O)[C@H](C(=O)O)C1 (stereo partly specified) | 100% | 99% | 104% | 71%
3 | NC(C(=O)O)[C@@H]1C2C=CC(CC2)[C@H]1C(=O)O (stereo partly specified) | 97% | 104% | 88% | 70%
4 | N[C@@H](CCC(=O)O)C(=O)O | – | – | – | 28%
5 | CC(C)[C@H]1CN[C@H](C(=O)O)[C@H]1CC(=O)O | – | – | – | 22%
6 | NC(C(=O)O)[C@@H]1C2C=CC(C2)[C@H]1C(=O)O (stereo partly specified) | 87% | 93% | 88% | 35%
7 | CC1=C(C)C[C@H]2C(C(=O)O)NC(=O)[C@@H]2C1 (stereo partly specified) | 97% | 96% | 103% | 77%
8 | NC(C(=O)O)[C@@H]1CC=CC[C@H]1C(=O)O (stereo partly specified) | 95% | 85% | 101% | 38%

From ChEMBL document CHEMBL1134954, “Synthesis and preliminary evaluation of trans-3,4-conformationally-restricted glutamate and pyroglutamate analogues as novel EAAT2 inhibitors” (2002)
